# Tests used:
# [1] = biological target: T1, CDK2/Cyclin A (Homo sapiens, UniProt P24941); assay: Enzymatic assay for CDK2 (FRET based LANCE Ultra kinase assay); format: biochemical; conditions: read-out: CDK2 enzymatic activity (IC50 range)
# T1 construct: purchased Invitrogen PV6290
# Procedure, shortened: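 Each CDK complex ([…]) phosphorylated 68 nM ULight-MBP peptide with ATP at Km for 60 min at 23° C., against 8 compound doses (4-fold dilutions). EDTA/Eu-anti-phospho-MBP detection, 60 min, then TR-FRET emission at 615 and 665 nm.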
# [2] = test system: A2780; assay: Cellular A2780 viability assay (CellTiter-Glo, 72 hours); format: cell-based; conditions: Homo sapiens
# Procedure, shortened: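 Cells seeded at 1×10^4/well (MM.1S), 5×10^3 (OVCAR-3) or 1×10^3 (A2780), grown in RPMI-1640 with 10% FBS. After 24 h, compound added at 0.0015–10 uM, final DMSO below 0.1%, for 72 h at 37° C. Viability read by CellTiter-Glo luminescence in duplicate, with curve fitting.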
# [3] = test system: OVCAR-3; assay: Cellular OVCAR-3 viability assay (CellTiter-Glo, 72 hours); format: cell-based; conditions: Homo sapiens
# Description: Human T-cell acute lymphoblastic leukemia cell line, MOLT-4 (ATCC, Cat #CRL-1582), Human multiple myeloma cell line, RPMI-8226 (Invitrogen, Cat #22400-089) and MM.1S (ATCC, Cat #CRL-2974), NSCLC (Non-small cell lung cancer) cell line H460 (ATCC, Cat #HTB-177), Human colon colorectal carcinoma cell line HCT116 (ATCC, Cat #CCL-247), Human acute monocytic leukemia cell line MV4-11 (ATCC, Cat #CRL-9591), OVCAR-3 (ATCC, Cat #HTB-161) and A2780 (ECACC, Cat #93112519) were obtained from ATCC. Cells were grown in RPMI-1640 media (Invitrogen, Cat #22400-089) supplemented with 10% FBS (Invitrogen, Cat #10099141) and 1% penicillin/streptomycin (Invitrogen, Cat #15070063) and cultured at 37° C., 5% CO2 in a humidified chamber. All cell lines were routinely tested for mycoplasma.
# The effect of the CDK7 inhibitor to inhibit the growth of target cancer cells was evaluated through the 72 hours time period of viability assay. Briefly, the candidate cell line ware plated in 96 well plate at the following density of cells respectively. 1×10^4 cells/well for MOLT-4, RPMI-8226, MV4-11 and MM.1S, 5×10^3 for H460, HCT116 and OVCAR-3 and IX 10^3 for A2780. After 24 hours, the cells were treated with various concentrations of the compound (ranging from 0.0015 uM to 10 uM). DMSO solvent without compound served as a control and final DMSO concentration less than 0.1%. After 72 hours of incubation at 37° C., 5% CO2 incubator, cells were analyzed for the viability using the CellTiter-Glo Luminescent Cell Viability Assay (Promega, Cat #G7570). All viability assays were performed in duplicate and Luminescence was read using an Envision (Perkin Elmer, USA). Data was analyzed using XLfit software.
# [4] = biological target: T2, CDK2/CycE1 (Homo sapiens, UniProt P24941); assay: In vitro IC50 profile for CDKs family kinase (33PanQinase radiometric assay); format: biochemical; conditions: CDK7 selectivity profile in CDKs family
# T2 construct: purchased ProQinase GmbH
# Protocol: (§1) In Vitro IC50 Profile for CDK7 Inhibitor Among 28 CDKs Family Kinases.
# (§2) The IC50 profile of compounds were determined using 28 CDKs family protein kinases through ProQinase GmbH (Freiburg, Germany). All the protocol and materials had been provided by ProQinase GmbH. Briefly, in the process, 90 μl H2O were added to each well of a compound dilution plate. To minimize potential precipitation, the H2O was added to the plate only a few minutes before the transfer of the compound solutions into the assay plates. The plate was shaken thoroughly, resulting in a “compound dilution plate/10% DMSO”. The compound dilution plate(s) were discarded at the end of the working day. For the assays (see below), 5 μl solution from each well of the compound dilution plate were transferred into the assay plates. The final volume of the assay was 50 μl. All compounds were tested at 10 final assay concentrations in the range from 1×10^−05 M to 3×10^−10 M. The final DMSO concentration in the reaction cocktails was 1% in all cases. All protein kinases provided by ProQinase were expressed in Sf9 insect cells or in E. coli as recombinant GST-fusion proteins or His-tagged proteins, either as full-length or enzymatically active fragments. All kinases were produced from human cDNAs and purified by either GSH affinity chromatography or immobilized metal affinity chromatography. The purity of the protein kinases was examined by SDS-PAGE/Coomassie staining, the identity was checked by mass spectroscopy. Kinases from external vendors, Carna Biosciences Inc.; Invitrogen Corp.; and Millipore Corp., were expressed, purified and quality-controlled by virtue of the vendors readings. A radiometric protein kinase assay (^33PanQinase® Activity Assay) was used for measuring the kinase activity of the 28 protein kinases. All kinase assays were performed in 96-well FlashPlates™ from PerkinElmer (Boston, MA, USA) in a 50 μl reaction volume. The reaction cocktails were incubated at 30° C. for 60 minutes. The reaction was stopped with 50 μl of 2% (v/v) H3PO4, plates were aspirated and washed two times with 200 μl 0.9% (w/v) NaCl. Incorporation of ^33Pi was determined with a microplate scintillation counter (Microbeta, Wallac). All assays were performed with a BeckmanCoulter/SAGIAN™ Core System. As part of the data evaluation the low control value from a particular plate was subtracted from the high control value as well as from all 80 “compound values” of the corresponding plate. The residual activity (in %) for each well of a particular plate was calculated by using the following formula: Res. Activity (%)=100×[(cpm of compound−low control)/(high control−low control)]. Results are represented in table (table 10).
# [5] = biological target: T3, CDK7/CycH/MAT1 (Homo sapiens, UniProt P50613); assay: as above; format: biochemical; conditions: CDK7 selectivity profile in CDKs family
# T3 construct: purchased ProQinase GmbH
# T3 sequence (P50613 whole entry): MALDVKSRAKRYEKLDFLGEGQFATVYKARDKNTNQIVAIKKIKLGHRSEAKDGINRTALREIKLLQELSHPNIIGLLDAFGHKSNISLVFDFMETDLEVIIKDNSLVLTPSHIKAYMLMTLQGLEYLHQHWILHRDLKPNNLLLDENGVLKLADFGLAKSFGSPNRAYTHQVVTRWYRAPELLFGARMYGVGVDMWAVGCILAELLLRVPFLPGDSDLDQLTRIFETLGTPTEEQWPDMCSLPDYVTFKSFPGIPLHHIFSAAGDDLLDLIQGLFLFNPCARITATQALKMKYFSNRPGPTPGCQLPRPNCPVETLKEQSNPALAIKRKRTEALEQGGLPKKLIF
# T3 sequence (P51946 whole entry partner): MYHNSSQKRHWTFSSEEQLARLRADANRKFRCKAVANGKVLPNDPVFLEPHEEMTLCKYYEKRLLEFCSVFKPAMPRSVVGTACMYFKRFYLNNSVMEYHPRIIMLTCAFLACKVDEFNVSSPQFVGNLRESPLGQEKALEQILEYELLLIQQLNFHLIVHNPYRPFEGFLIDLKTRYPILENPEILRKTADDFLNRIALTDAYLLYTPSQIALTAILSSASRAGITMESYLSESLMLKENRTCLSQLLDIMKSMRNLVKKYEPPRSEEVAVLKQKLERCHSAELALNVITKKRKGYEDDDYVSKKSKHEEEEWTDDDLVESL
# T3 sequence (P51948 whole entry partner): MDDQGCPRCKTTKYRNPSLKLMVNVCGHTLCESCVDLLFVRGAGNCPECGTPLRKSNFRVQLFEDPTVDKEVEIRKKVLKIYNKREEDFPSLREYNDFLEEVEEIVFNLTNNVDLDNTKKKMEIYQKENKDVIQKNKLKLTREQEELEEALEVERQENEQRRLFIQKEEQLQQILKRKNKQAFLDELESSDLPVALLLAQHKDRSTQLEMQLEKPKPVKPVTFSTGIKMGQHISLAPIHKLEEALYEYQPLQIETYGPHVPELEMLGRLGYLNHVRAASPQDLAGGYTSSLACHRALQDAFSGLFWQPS
# Protocol: as §1, §2
# [6] = biological target: T4, CDK9/CycT1 (Homo sapiens, UniProt P50750); assay: as above; format: biochemical; conditions: CDK7 selectivity profile in CDKs family
# T4 construct: purchased ProQinase GmbH
# T4 sequence (P50750 whole entry): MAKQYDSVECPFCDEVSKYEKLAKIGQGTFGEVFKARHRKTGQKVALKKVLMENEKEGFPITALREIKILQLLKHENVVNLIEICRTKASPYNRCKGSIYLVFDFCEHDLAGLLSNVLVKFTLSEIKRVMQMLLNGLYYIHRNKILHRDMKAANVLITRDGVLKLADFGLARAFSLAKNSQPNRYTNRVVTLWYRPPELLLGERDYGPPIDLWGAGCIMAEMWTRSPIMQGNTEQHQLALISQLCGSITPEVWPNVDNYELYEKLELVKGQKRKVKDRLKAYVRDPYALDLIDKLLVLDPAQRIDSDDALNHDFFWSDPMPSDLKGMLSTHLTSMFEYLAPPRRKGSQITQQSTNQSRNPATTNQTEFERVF
# T4 sequence (O60563 whole entry partner): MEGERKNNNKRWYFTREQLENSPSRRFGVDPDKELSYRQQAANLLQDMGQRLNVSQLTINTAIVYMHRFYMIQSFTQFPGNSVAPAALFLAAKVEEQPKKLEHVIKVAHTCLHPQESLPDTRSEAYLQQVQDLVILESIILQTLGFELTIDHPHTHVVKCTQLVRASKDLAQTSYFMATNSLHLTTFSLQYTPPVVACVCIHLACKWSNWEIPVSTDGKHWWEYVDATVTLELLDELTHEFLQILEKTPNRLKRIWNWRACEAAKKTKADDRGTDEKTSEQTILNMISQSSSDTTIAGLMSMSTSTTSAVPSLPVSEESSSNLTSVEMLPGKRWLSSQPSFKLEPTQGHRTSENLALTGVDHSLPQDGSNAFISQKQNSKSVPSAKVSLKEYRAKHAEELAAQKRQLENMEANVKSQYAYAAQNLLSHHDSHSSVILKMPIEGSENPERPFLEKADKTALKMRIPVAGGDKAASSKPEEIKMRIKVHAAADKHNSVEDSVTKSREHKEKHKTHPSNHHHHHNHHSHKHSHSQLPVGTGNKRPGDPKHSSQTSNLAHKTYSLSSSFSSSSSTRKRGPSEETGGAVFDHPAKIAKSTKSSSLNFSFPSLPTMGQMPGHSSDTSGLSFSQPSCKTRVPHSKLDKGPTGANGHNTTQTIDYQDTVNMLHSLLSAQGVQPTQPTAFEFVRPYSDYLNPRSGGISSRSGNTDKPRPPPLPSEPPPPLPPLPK
# Protocol: as §1, §2
compound,measurement,setting,value
CC(C)c1cnn2c(NCc3c(Cl)cccc3-n3ccc(C(C)(C)O)n3)nc(N3CCC(N)CC3)nc12 [Compound 210],IC50,[1],> 1000 nM
same,IC50,[2],≤ 1000 nM
same,IC50,[3],≤ 1000 nM
same,IC50,[4],3480 nM
same,IC50,[5],15 nM
same,IC50,[6],> 10000 nM
